Laboratory results from patent US20130039897A1, “COMPOSITIONS AND METHODS FOR REGULATING NEUTROPHIL MOVEMENT AND NEUTROPHIL NUMBERS IN A BODY REGION” (The Texas A&M University System, priority 2011, published 2013).

Test system: human neutrophils
Test: Insall chamber assay with DPPIV enzyme inhibitors, with or without rDPPIV
Type: cell-based
Details: FIG. 5; for chemorepulsion of neutrophils away from the source of rDPPIV: inhibitor added with rDPPIV, compared to rDPPIV alone; for attraction or repulsion of human neutrophils: inhibitor alone
Description: Cover slips were then washed twice with PBS, and neutrophils at approximately 5×10^6 cells/ml were allowed to adhere to the coverslip for 15 minutes at 37° C. Two concentric depressions and the separating bridge in an Insall chamber slide were filled with 2% (w/v) BSA-RPMI. The media was removed from the coverslips, which were then placed face down on the chamber. Media was then removed from the outer chamber and was replaced by rDPPIV alone, DPPIV inhibitor alone (Diprotin A, Enzo Life Sciences or DPPI 1 c hydrochloride, Tocris Bioscience (Bristol, UK)), rDPPIV plus DPPIV inhibitor (all in 2% (w/v) BSA-RPMI), or 2% (w/v) BSA-RPMI. Cells located on the bridge between the square depressions were then filmed using the methods of Ochsner, S. A., et al., Disrupted function of tumor necrosis factor-alpha-stimulated gene 6 blocks cumulus cell-oocyte complex expansion. Endocrinology, 2003. 144(10): p. 4376-84, incorporated in material part by reference herein, using a 10× objective for 1 hour at 37° C. in a humidified 5% CO2 incubator. The displacement of at least 10 randomly-chosen cells per experiment was measured over periods of 10 minutes. Cell tracking and track analysis were performed according to the methods of Phillips, J. E. and R. H. Gomer, A secreted protein is an endogenous chemorepellant in Dictyostelium discoideum. Proc Natl Acad Sci U S A, 2012. 109(27): p. 10990 - 10996, incorporated in material part by reference herein, with the exception that videos of an hour in length were processed into 10 minute segments to yield a TIFF stack of 47 images for analysis (with 13-second intervals between images).
DPPIV enzyme activity has been implicated in chemotaxis of hematopoietic stem cells through cleavage of SDF-1. To determine if DPPIV enzyme activity is responsible for neutrophil chemorepulsion, two enzyme inhibitors of DPPIV, Diprotin A and DPPI 1 c HCl, were used in Insall chamber assays along with DPPIV.

SMILES | chemorepulsion of neutrophils away from the source of rDPPIV | attraction or repulsion of human neutrophils
Cl.N#C[C@@H]1CC[C@H](C#N)N1C(=O)CNC1(CO)CCCC1 [DPPI 1 c HCl, DPPI 1 c hydrochloride] | significantly reduced | caused no attraction or repulsion
CC[C@H](C)[C@H](N)C(=O)N1CCC[C@H]1C(=O)N[C@H](C(=O)O)[C@@H](C)CC [Diprotin A] | significantly reduced | caused no attraction or repulsion
